Laboratory results published in patent publication US20160151337A1, “ANNELATED PYRROLES AND THEIR USE AS CRAC INHIBITORS” (Grünenthal GmbH, priority 2013, published 2016).

Legend:
[1] = test system: Interleukin-2 (IL-2) production/release in Jurkat T cells; experiment: Jurkat IL-2 Production Assay (PHA-stimulated, IL-2 AlphaLisa); format: cell-based; conditions: Homo sapiens, PHA 15 μg/ml, 22 h, inhibition of IL-2 production
Summary of the method: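 Jurkat E6-1 cells (5*10^5/well, DMEM/F12 with 10% FCS) pretreated 30 min with compound, then stimulated 22 h with 15 μg/ml PHA at 37 °C. IC50 from 8-point 1:3.16 dilution starting at 10 μM.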

CRAC channel = target: T1, CRAC channel (Homo sapiens, UniProt Q96D31); experiment: HEK Calcium Influx Assay (FLIPR), inhibition of store-operated Ca2+ entry after thapsigargin store depletion; format: cell-based; conditions: 10 μM compound, HEK293 cells, read-out: % inhib. [@ 10 μM] FLIPR
T1 construct: endogenous in cells; host or cells: HEK293 (ECACC), untransfected
Summary of the method: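 HEK293 cells loaded with Calcium-4 dye in Ca2+-free HBS (pH 7.4), stores depleted with 2 μM thapsigargin for 10 min (100 μM EGTA); after 3 mM CaCl2 re-addition and 15 min steady-state, compounds added and FLIPR signal averaged 9.5–10 min post-dose. IC50 from 8-point 1:3.16 dilutions from 10 μM, normalised to DMSO and non-depleted wells.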

T1 sequence (Q96D31 whole entry): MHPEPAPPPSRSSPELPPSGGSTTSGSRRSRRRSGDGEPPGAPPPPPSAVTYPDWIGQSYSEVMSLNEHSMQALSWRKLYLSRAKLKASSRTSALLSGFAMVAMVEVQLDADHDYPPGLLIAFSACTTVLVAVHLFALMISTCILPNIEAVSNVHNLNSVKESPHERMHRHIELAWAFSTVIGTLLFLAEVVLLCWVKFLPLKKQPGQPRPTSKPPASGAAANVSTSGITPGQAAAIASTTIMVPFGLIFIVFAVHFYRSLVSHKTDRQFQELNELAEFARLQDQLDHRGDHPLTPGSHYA

Structure (SMILES)	IC50 [1] [µM]	inhibition at 10 µM (CRAC channel) [%]
Cc1cc(S(C)(=O)=O)ncc1N1CCc2[nH]c(C3CCCC3)cc2C1 [Example 118, 2-Cyclopentyl-5-(4-methyl-6-methylsulfonyl-pyridin-3-yl)-4,5,6,7-tetrahydro-1H-pyrrolo[3,2-c]pyridine]	1 to 5	> 70
Cc1cc(S(=O)(=O)N2CCC2)ccc1N1CCc2[nH]c(-c3c(F)cccc3F)cc2C1 [Example 109, 5-[4-(Azetidin-1-ylsulfonyl)-2-methyl-phenyl]-2-(2,6-difluoro-phenyl)-4,5,6,7-tetrahydro-1H-pyrrolo[3,2-c]pyridine]	< 0.5	< 50
Cc1cc(S(=O)(=O)N2CCOCC2)ccc1N1CCc2[nH]c(-c3c(F)cccc3F)cc2C1 [Example 117, 4-[[4-[2-(2,6-Difluoro-phenyl)-4,5,6,7-tetrahydro-1H-pyrrolo[3,2-c]pyridin-5-yl]-3-methyl-phenyl]sulfonyl]-morpholine]	0.5 to 1	> 70
Cc1nc(Cl)ccc1N1CCc2[nH]c(-c3c(F)cccc3F)cc2C1 [Example 15, 5-(6-Chloro-2-methyl-pyridin-3-yl)-2-(2,6-difluoro-phenyl)-4,5,6,7-tetrahydro-1H-pyrrolo[3,2-c]pyridine]	1 to 5	> 70
